Assay results published in publication PMC11579541, “In vitro, in vivo, and in silico approaches for evaluating the preclinical DMPK profiles of ammoxetine, a novel chiral serotonin and norepinephrine reuptake inhibitor” (Frontiers in Pharmacology, 2024).

Assays:
[1] = Hepatic microsome stability assay, RLM; format: in vitro ADME, rat; settings: rat, liver microsomes, pH 7.4; 1 μmol/L, 0.2 g/L microsomes, NADPH
Experimental: (§1) A hepatic microsome stability assay was conducted to investigate the metabolic disposition of ammoxetine. In this assay, 100 μL of ammoxetine (2.5 μmol/L) was incubated at 37°C with 100 μL of liver microsomes (RLM, DLM, MLM, or HLM) formulated in a 5 mmol/L dipotassium hydrogen phosphate (K2HPO4) buffer at pH 7.4. The concentration of microsomes was 0.5 g/L. To initiate the incubations, 50 μL of NADPH solution preincubated at 37°C was added. […] Parallel triplicate samples were prepared for each time point, including 0, 2, 5, 10, 15, 30, 60, 90, and 120 min. To stop the reactions at each time point, 250 μL of ice-cold precipitating agent (acetonitrile/methanol, 1:1, v/v) containing 500 ng/mL of L-phencynonate (IS) was added to the incubation mixture. The samples were vortexed for 2 min at 4°C and then centrifuged at 13,800×g for 10 min. The supernatants were analyzed using an LC-MS-MS approach. […]
(§2) In Formula 3, t1/2 (min) represents the half-life of ammoxetine in liver microsomes. It is calculated by dividing −0.693 by the resulting slope (k e) obtained from a natural logarithm plot of the remaining concentration of ammoxetine against incubation time. […]

RLM = experiment: Hepatic microsome stability assay, RLM; format: in vitro ADME, rat; settings: predicted hepatic clearance
Experimental: as §1, §2

CYP 1A2 = molecular target: T1, CYP 1A2 (Homo sapiens, UniProt P05177); experiment: CYP inhibition, cocktail-substrate method in HLM; format: in vitro ADME; set-up: 0.5 mg/mL HLM, 1 mmol/L NADPH, and a cocktail of 10 probe substrates for 9 CYP isoforms; tissue BD (Woburn, USA); host or cells: pooled human liver microsomes
T1 sequence (P05177 1-516): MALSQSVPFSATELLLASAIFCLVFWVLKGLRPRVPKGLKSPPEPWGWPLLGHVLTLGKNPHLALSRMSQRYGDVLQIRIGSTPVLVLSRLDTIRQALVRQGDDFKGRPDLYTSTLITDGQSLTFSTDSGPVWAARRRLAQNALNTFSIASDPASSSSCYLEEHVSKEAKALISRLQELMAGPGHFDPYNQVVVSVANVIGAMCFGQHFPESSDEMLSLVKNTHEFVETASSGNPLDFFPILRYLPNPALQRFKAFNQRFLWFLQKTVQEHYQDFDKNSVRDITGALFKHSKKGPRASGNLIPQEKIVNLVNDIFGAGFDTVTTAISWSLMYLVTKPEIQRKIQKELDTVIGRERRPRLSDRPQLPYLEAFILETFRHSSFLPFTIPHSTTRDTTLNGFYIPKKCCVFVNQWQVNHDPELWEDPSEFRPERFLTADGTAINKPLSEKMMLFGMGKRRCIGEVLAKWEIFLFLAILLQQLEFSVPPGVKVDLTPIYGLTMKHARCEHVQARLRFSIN
Experimental: (§3) To assess the CYP inhibition profiling of ammoxetine, a high-throughput assay based on the cocktail-substrate method was performed, as described in the literature ([Kim et al., 2005]; [Kozakai et al., 2014]). Microsomal incubations were conducted in triplicate for 30 min at 37°C in a reaction system (200 μL) consisting of […] potassium phosphate buffer (pH 7.4), 0.5 mg/mL HLM, 1 mmol/L NADPH, and a cocktail of 10 probe substrates for 9 CYP isoforms. The final concentration of each CYP-specific substrate was chosen to be close to the Michaelis-Menten constant (K m ) value of the respective substrate ([Kim et al., 2005]; [Lee et al., 2024]). For instance, phenacetin (CYP 1A2) was used at a concentration of 50 μmol/L, coumarin (CYP 2A6) at 5 μmol/L, bupropion (CYP 2B6) at 50 μmol/L, amodiaquine (CYP 2C8) at 5 μmol/L, tolbutamide (CYP 2C9) at 100 μmol/L, S-mephenytoin (CYP 2C19) at 100 μmol/L, dextromethorphan (CYP 2D6) at 5 μmol/L, chlorzoxazone (CYP 2E1) at 50 μmol/L, and testosterone and midazolam (CYP 3A4) at 50 μmol/L. Ammoxetine was evaluated at five concentrations: 0.1, 1, 10, 50, and 100 μmol/L. Additionally, a blank control without ammoxetine was included. The incubation was terminated by adding an equal volume of ice-cold acetonitrile/methanol (1:1, v/v) along with the IS, dexmedetomidine (1 ng/mL). After a 20-fold dilution, the mixture was centrifuged at 13,800×g for 10 min at 4°C. The supernatants were used to measure the levels of metabolites from the respective probe substrates using an LC-MS-MS method. The half-maximal inhibitory concentration (IC50) values were subsequently calculated.

CYP 2C9 = CYP 2C9 (Homo sapiens, UniProt P11712); experiment: CYP inhibition, cocktail-substrate method in HLM; format: in vitro ADME; set-up: 0.5 mg/mL HLM, 1 mmol/L NADPH, and a cocktail of 10 probe substrates for 9 CYP isoforms; tissue BD (Woburn, USA); host or cells: pooled human liver microsomes; settings: probe tolbutamide
Experimental: as §3

CYP 3A4 = CYP 3A4 (Homo sapiens, UniProt P08684); experiment: CYP inhibition, cocktail-substrate method in HLM; format: in vitro ADME; set-up: 0.5 mg/mL HLM, 1 mmol/L NADPH, and a cocktail of 10 probe substrates for 9 CYP isoforms; tissue BD (Woburn, USA); host or cells: pooled human liver microsomes; settings: probes testosterone and midazolam
Experimental: as §3

Sequence of CYP 3A4 (P08684 whole entry, canonical isoform): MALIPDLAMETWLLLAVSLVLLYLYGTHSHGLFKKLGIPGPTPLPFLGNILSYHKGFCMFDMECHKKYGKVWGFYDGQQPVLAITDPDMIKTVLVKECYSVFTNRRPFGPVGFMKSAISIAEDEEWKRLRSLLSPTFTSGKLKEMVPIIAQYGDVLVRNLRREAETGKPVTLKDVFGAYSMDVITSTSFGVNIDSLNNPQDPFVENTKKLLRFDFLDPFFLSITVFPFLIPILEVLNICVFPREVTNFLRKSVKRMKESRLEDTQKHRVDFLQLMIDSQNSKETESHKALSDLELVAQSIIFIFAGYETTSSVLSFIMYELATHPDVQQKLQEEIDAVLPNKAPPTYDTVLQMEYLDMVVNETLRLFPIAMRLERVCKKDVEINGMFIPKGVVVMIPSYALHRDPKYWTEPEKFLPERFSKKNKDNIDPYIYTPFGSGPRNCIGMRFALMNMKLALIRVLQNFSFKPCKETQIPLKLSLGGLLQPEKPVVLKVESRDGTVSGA
Sequence of CYP 2C9 (P11712 whole entry, canonical isoform): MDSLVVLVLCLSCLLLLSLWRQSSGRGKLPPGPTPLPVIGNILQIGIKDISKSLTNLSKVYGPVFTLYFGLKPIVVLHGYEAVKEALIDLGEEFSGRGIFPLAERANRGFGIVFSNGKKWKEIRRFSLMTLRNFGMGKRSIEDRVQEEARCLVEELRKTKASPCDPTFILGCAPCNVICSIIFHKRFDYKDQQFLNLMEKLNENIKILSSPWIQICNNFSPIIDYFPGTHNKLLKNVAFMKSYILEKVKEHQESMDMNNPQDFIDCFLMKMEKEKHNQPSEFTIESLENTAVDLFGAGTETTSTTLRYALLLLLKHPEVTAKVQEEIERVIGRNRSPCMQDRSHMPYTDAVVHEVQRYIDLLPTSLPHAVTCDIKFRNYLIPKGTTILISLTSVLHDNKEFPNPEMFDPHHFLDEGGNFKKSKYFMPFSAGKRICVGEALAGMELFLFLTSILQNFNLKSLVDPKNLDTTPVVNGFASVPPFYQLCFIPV

- half-life at 1 μmol/L [1]: 12.8 ± 0.99 min
- CL h (RLM): 49.58 ± 0.39 mL/min/kg
- IC50 (CYP 1A2; HLM, probe phenacetin): > 100 µM
- probe substrate levels, % of the original blank group (CYP 1A2; ammoxetine 100 μmol/L): ~72.30%
- IC50 (CYP 2C9): > 100 µM
- IC50 (CYP 3A4): > 100 µM
SMILES: CNCC[C@H](Oc1cccc2c1OCO2)c1cccs1 [ammoxetine]
